Results on one compound are retold here after patent US10952987B2 (BIOPROJET, priority 2012, dated 2021).

The conditions of series [1]: adrenalin alone 30 μg/kg intramuscular, anesthetized rabbits.
The conditions of series [2]: adrenalin alone 30 μg/kg intramuscular, anesthetized rabbits. This is another data set of the same source.
The conditions of series [3]: in animals as well as in humans; cited from earlier work.

Take `CNC[C@H](O)c1ccc(O)c(O)c1` [adrenalin]: in series [1], the “AUC of second plasma adrenalin peak relative to the first one” value is given as “about 20 times” and the “time of first narrow peak in plasma adrenalin level” value was “a few minutes following the injection”. Moreover, the “time of second, much larger peak in plasma adrenalin level” value in series [1] (later than first peak) is given as 20 min. For the same compound, in series [2], the hypertensive episodes entry was “two hypertensive episodes occurred at the times of the plasma adrenalin peaks”. For the same compound, the “delay of the bulk of the increase in plasma levels of adrenalin after injection” value in series [3] is given as “about 20 minutes”.
